Assay results taken from patent publication US20230257435A1, “Wound Healing Composition and Uses Thereof” (AGENCY FOR SCIENCE, TECHNOLOGY AND RESEARCH, priority 2020, published 2023).

What was measured:
[1] = tested on: keratinocytes and dermal fibroblasts; experiment: In vitro scratch wound-healing assay; format: cell-based, human and mouse
Description: (§1) A confluent monolayer of control and Agrin depleted cells in a 6-well plate was subjected to a unidirectional scratch using a 20 μl pipette tip. This was followed by washing with 1×PBS at room temperature and incubation in complete culture media at 37° C. and 5% CO2 with or without sAgrin used as indicated. Phase contrast images of the wound area were taken periodically at the indicated time-points. For some wound-healing migration assays, keratinocytes were cultured on either soft or stiff substrates within a stencil barrier (Nalge Nunc., Inc) for 18 h. Upon removal of the barrier, the cells were allowed to migrate and imaged using an Axiovert 200 inverted microscope at indicated time-points.

[2] = tested on: mouse skin explants; experiment: Mouse skin explant assay (keratinocyte outgrowth); format: cell-based; conditions: soft matrix with 20 μg/ml sAgrin; MMP408 5 nM, 5 days
Description: Three days old ICR strain mouse pups were sacrificed and the hind skin on either side of the midline in the shoulder region was washed in 70% ethanol and excised using scalpel. The excised skin was washed in 70% ethanol and placed (dermis side down) on the pre-made gel substrates of defined stiffness, either in the absence or presence of 20 μg/ml sAgrin. The explants were allowed to adhere for 2 h before adding the keratinocyte culture medium (DMEM) containing 300 μM Ca^2+ as described previously^31. The keratinocyte outgrowth and the skin tissues regularly imaged under an Axiovert-200 inverted microscope and were subsequently fixed in 4% paraformaldehyde and immunostained for Keratin 17 antibody.
Tissue culture plates were coated with Col-T-gel (Fischer Scientific) of stiffness ranging from 0.8 KPa (soft) to 30 KPa (stiff) as per manufacturer recommendations and allowed to solidify for 40 min at 37° C. inside tissue culture incubators. Some experiments were performed with cells seeded on the poly-hydrogel plates of defined stiffness: 0.2 kPa and 16 kPa soft and hard polyhydrogels, respectively (CytoSoft, Advanced Biomatrix, Inc.,). The determination of stiffness of silicone substrates were done by the manufacturer as per previously published protocols. For certain experiments, indicated amounts of sAgrin was incorporated into the 0.8 KPa collagen gels before gelation process. Upon gelation, trypsinized cells or excised mouse skin explants were plated onto the gels of different stiffness either alone or containing sAgrin. The cells/tissues were incubated under standard culture condition with 500 μl recommended culture medium for the indicated days. The crossbow shaped micropatterns with fibronectin coated islands were generated by microlithography on a 19.5×19.5 mm coverslide from Cytoo, Inc., France. The micropatterns had surface areas of 800μ^2 or 1600μ^2, respectively. Fifty thousand cells after initial siRNA treatment was placed on the micropatterns for 4-6 h before processing them for immunofluorescence. […]

[3] = tested on: phosphorylated myosin light chain (pMLC); experiment: Actomyosin cables / pMLC activation after wound scratch; format: cell-based, human; conditions: 10 μm Blebbistatin 2 h before scratch
Description: Indicated cells post-manipulation were washed twice with cold Phosphate buffered saline (PBS) and lysed with cold 1% NP-40 lysis buffer supplemented with 1× protease inhibitor cocktail (Roche Applied Biosciences) for 15 mins at 4° C. The cell lysate was centrifuged at 13,000 rpm for 15 min. This was followed by protein estimation using Bradford reagent. Subsequently, […] of total protein was mixed with an equal volume of 2× Laemmli sample buffer and heated at 95° C. for 5 mins. This was followed by resolution with SDS-PAGE gel. The resolved proteins were transferred onto nitrocellulose membrane and blocked in 5% skimmed milk reconstituted in 1×PBS containing 0.1% Tween-20, and probed overnight with the respective primary antibody. The membrane was then washed with 1×PBS supplemented with 0.1% Tween-20: three times at 15 min intervals. This was followed by 1 h incubation in conjugated horseradish peroxidase HRP secondary antibody (Santa Cruz Biotechnology). Post-incubation, the blot was again washed three times as above and then overlaid with enhanced chemiluminescence (ECL) substrate (Pierce/Bio-Rad) and visualized on X-ray film by image processor or digitally by Chemidoc analyzer (Bio-Rad). The density of the various bands was quantified using the Image-J software.
Cells were cultured on eight-well chamber slides or coverslips over-night. Cells were then washed twice with PBS and fixed for 15 min with 4% paraformaldehyde. Subsequently, the cells were permeabilized for 15 min with 0.1% Triton X in Phosphate buffered saline containing 1 mM Ca^+2 and 1 mM Mg^+2 (PBSCM) at room temperature. The permeabilized cells were incubated with indicated antibodies in fluorescent dilution buffer (FDB) for 1-2 h at RT or overnight at 4° C., followed by 5 washes with PBSCM and incubation with secondary antibody; Alexa Fluor (Thermo Fisher Scientific) for 1 h at RT. Slides were again washed five times with PBSCM and mounted with Vectashield medium containing DAPI. The stained cells were then imaged by a Zeiss confocal microscope. The images were processed and analyzed by Zen blue software. Intensity measurements were acquired using tool selection parameter in image analysis within the Zen blue software.
as §1

[4] = tested on: pMLC; experiment: Force transmission via ligand conjugated magnetic beads; format: cell-based, human; conditions: siAgrin cells
Description: The ligands were conjugated to 4.5 μm epoxide paramagnetic beads (Dynabeads M-450 Epoxy, Thermo Fisher Scientific) according to the manufacturer's manual. Briefly, the beads were washed twice in 0.1 M sodium phosphate buffer, pH 7.4. Subsequently. 8×10^7 beads were conjugated to 20 μg sAgrin, BSA and FN per in 0.1 M sodium phosphate buffer at pH 7.4 for 16-18 h at 4° C. with gentle rotation throughout. The degree of protein conjugation to the beads was verified by a reducing SDS-PAGE gel analysis using a subset of ligand conjugated beads. The remaining beads were washed and subsequently stored in 0.1% BSA-phosphate buffered saline (PBS) pH 7.4 at 4° C. They were subsequently suspended in medium and added on the cells for 30 min at 37° C. After a brief wash with PBS to remove excess non-adherent beads, the cells were placed under a permanent neodymium magnet (J Magnetics, USA) at a distance of 6 mm apart for another 30 min that allowed a vertical tensile force in the magnitudes of ˜200 pN on the beads. The cells were then fixed in 4% paraformaldehyde, permeabilized and processed for immunofluorescence.

COC(=O)Nc1ccc2oc3cc(S(=O)(=O)N[C@H](C(=O)O)C(C)C)ccc3c2c1 [MMP408, reference compound]
migration of sAgrin induced K17 expressing keratinocytes ([1]; 5 nM MMP408, soft substrates and normal culture conditions): blunted the migration of sAgrin induced K17 expressing keratinocytes | sAgrin induced K17 expressing migratory outgrowth [2]: abruptly abolished

Cc1ccc2c(c1)C(=O)C1(O)CCN(c3ccccc3)C1=N2 (centres unmarked) [blebbistatin, reference compound]
sAgrin induced actomyosin cables [3]: abolished | sAgrin induced migration post-wound injury ([1]; 10 μm Blebbistatin, 18 h post-wounding): abolished the sAgrin induced migration

B1: syndecan-4: Syndecan-4 conjugated to magnetic beads (protein, UniProt P31431 19-198, looked up)
Syndecan-4: ESIRETEVIDPQDLLEGRYFSGALPDDEDVVGPGQESDDFELSGSGDLDDLEDSMIGPEVVHPLVPLDNHIPERAGSGSQVPTEPKKLEENEVIPKRISPVEESEDVSNKVSMSSTVQGSNIFERTEVLAALIVGGIVGILFAVFLILLLMYRMKKKDEGSYDLGKKPIYKKAPTNEFYA
modifications: conjugated to magnetic beads
notes: Syndecan-4 conjugated to magnetic beads
rescue of reduced pMLC in Agrin depleted cells by force through ligand beads [4]: rather insufficient to rescue myosin mechanotension
